Where “and” joins values, the source holds several entries; their conditions need not be identical. Equal entries are not always repeated. Where two headings read alike, the source gives them in different places.
How the values were obtained:
[1] = Tissue distribution of CPT after inhalation of CPT liposome aerosol; assay type: in vivo, Mouse; settings: mice; for CPT in tissue: individual animals; for concentration at 15 min: mouse, in vivo, 486 ng per mouse, 4 animals, read-out: MEAN (±SD) CPT in tissue
Procedure: The final suspension was clear. If precipitation occurred, it was reheated to 50-60° C. The preparation was frozen in liquid nitrogen and lyophilized overnight. For use the material was dissolved in sterile water to the appropriate drug concentration, not exceeding 1.0 mg/ml for either drug. The efficiency of incorporation of drug in the liposomes was examined qualitatively by microscopic examination under polarized light. Unincorporated drug was seen as bi-refringent crystals. The efficiency of incorporation was examined by centrifugation of aqueous suspensions of liposomes on Percoll™ gradients. One-tenth ml of suspension was layered over 2 ml of gradient and centrifuged at 2000 rpm for 25-30 minutes. Liposomes layer at the water-Percoll interface, while unincorporated drug was deposited at the bottom of the tube. Many other lipids may be substituted for DLPC in the formulation and use of liposomes for delivery of drugs by aerosol (26).
(§1) The mobile phase was 30% acetonitrile and 70% of 0.1% glacial acetic acid. CPT was detected using the Waters 470 scanning fluorescence detector set to an excitation wavelength of 370 nm and an emission wavelength of 440 nm. […] The data were analyzed with the Waters Millenium software.
The deposited dose was calculated to be 486 ng per mouse. The mean concentrations in lungs and liver were similar with smaller concentrations in the other sites examined. […] Drug was cleared promptly from the lungs so that 15 minutes after stopping nebulization only negligible amounts of drug were present in the lungs. Liver, kidney and spleen had substantial amounts of drug initially which gradually diminished through the one hour of study. […] These studies indicate substantial immediate deposition of drug in the lungs with rapid clearance to the viscera. The amount of drug contributed by absorption from swallowed drug is uncertain.

[2] = Time dependent organ distribution of CPT after intranasal administration of DLPC liposomes; assay type: in vivo; settings: other: intranasal instillation, mice, intranasal DLPC liposomal CPT 7 μg per mouse, read-out: CPT in tissue
Procedure: The mobile phase was 30% acetonitrile and 70% of 0.1% glacial acetic acid. CPT was detected using the Waters 470 scanning fluorescence detector set to an excitation wavelength of 370 nm and an emission wavelength of 440 nm. […] The data were analyzed with the Waters Millenium software. […]
CPT was administered in liposomal formulation prepared with DLPC with initial drug concentration 0.2 mg/ml.
35 μL of suspension was installed to each animal (group of 3 animals was treated for each time point).

[3] = Time dependent organ distribution of CPT after intramuscular administration; assay type: in vivo; settings: mouse, mice, i.m. CPT in DMSO/saline suspension, read-out: CPT in tissue
Procedure: as §1
Drug disappeared very slowly from the site of intramuscular injection in the first 12 hours, with only very small concentrations detected in the liver and virtually no drug present at other sites. Concentrations in the blood were negligible throughout the study. The dose administered was the same as that given by intranasal instillation. These findings indicate a speedier and more efficient systemic absorption of drug after pulmonary administration of drug than by the intramuscular route. It is likely that deposition in organs and vascular spaces will increase the opportunity for exposure to albumin molecules and degradation to the carboxyl form of the drug.

[4] = Blood, after 15 minutes inhalation of CPT liposome aerosol
[5] = Kidney, after 15 minutes inhalation of CPT liposome aerosol
[6] = Liver, after 15 minutes inhalation of CPT liposome aerosol
[7] = Spleen, after 15 minutes inhalation of CPT liposome aerosol
[8] = site of injection, 7 µg/mouse, Site of inj.
[9] = whole blood, 7 μg per mouse, Blood

CC[C@@]1(O)C(=O)OCc2c1cc1n(c2=O)Cc2cc3ccccc3nc2-1 [CPT, 20-S-camptothecin]
CPT in tissue [1, 4]: 7.1 ng/gm and 8.3 ng/gm and 22.6 ng/gm and 17.7 ng/gm | CPT in tissue [1, 5]: 21.8 ng/gm and 18.0 ng/gm and 50.0 ng/gm and 29.3 ng/gm | CPT in tissue [1, 6]: 44.3 ng/gm (2×) and 21.9 ng/gm and 178.0 ng/gm | CPT in tissue ([1]; Lung, after 15 minutes inhalation of CPT liposome aerosol (0.2 mg/ml in nebulizer)): 48.0 ng/gm and 27.0 ng/gm and 77.5 ng/gm and 52.0 ng/gm | CPT in tissue [1, 7]: 16.4 ng/gm and 11.4 ng/gm and 25.0 ng/gm and 12.0 ng/gm | concentration at 15 min [1, 4]: 13.9 ± 7.5 ng/g | concentration at 15 min [1, 5]: 29.8 ± 14.3 ng/g | concentration at 15 min [1, 6]: 72.1 ± 71.4 ng/g | concentration at 15 min ([1]; Lung, after 15 minutes inhalation of CPT liposome aerosol): 51.1 ± 20.7 ng/g | concentration at 15 min [1, 7]: 16.2 ± 6.3 ng/g | concentration at 0 min ([2]; Kidney): 542 ± 174 ng/g | concentration at 15 min ([2]; Kidney): 190 ± 57 ng/g | concentration at 30 min ([2]; Kidney): 49 ± 13 ng/g | concentration at 60 min ([2]; Kidney): 24 ± 21 ng/g | concentration at 0 min ([2]; Liver): 651 ± 418 ng/g | concentration at 15 min ([2]; Liver): 255 ± 101 ng/g | concentration at 30 min ([2]; Liver): 66 ± 17 ng/g | concentration at 60 min ([2]; Liver): 34 ± 7 ng/g | concentration at 0 min ([2]; Lung): 1290 ± 657 ng/g | concentration at 15 min ([2]; Lung): 19 ± 3 ng/g | concentration at 30 min ([2]; Lung): 36 ± 23 ng/g | concentration at 60 min ([2]; Lung): 7 ± 3 ng/g | concentration at 0 min ([2]; Spleen): 351 ± 137 ng/g | concentration at 15 min ([2]; Spleen): 84 ± 32 ng/g | concentration at 30 min ([2]; Spleen): 21 ± 8 ng/g | concentration at 60 min ([2]; Spleen): 7 ± 2 ng/g | concentration at 0 min ([2]; whole blood, Blood): 213 ± 19 ng/g | concentration at 15 min ([2]; whole blood, Blood): 53 ± 20 ng/g | concentration at 30 min ([2]; whole blood, Blood): 8 ± 3 ng/g | concentration at 60 min ([2]; whole blood, Blood): 4 ± 2 ng/g | concentration at 0 min ([3]; 7 μg per mouse, Kidney): 2 ng/g | concentration at 30 min ([3]; 7 μg per mouse, Kidney): 40 ± 14 ng/g | concentration at 60 min ([3]; 7 μg per mouse, Kidney): 26 ± 7 ng/g | concentration at 1200 min ([3]; 7 μg per mouse, Kidney): 15 ± 5 ng/g | concentration at 0 min ([3]; 7 μg per mouse, Spleen): 2 ± 1 ng/g | concentration at 30 min ([3]; 7 μg per mouse, Spleen): 18 ± 9 ng/g | concentration at 60 min ([3]; 7 μg per mouse, Spleen): 11 ± 5 ng/g | concentration at 1200 min ([3]; 7 μg per mouse, Spleen): 5 ± 1 ng/g | concentration at 60 min ([3]; 7 µg/mouse, Blood): 8 ± 1 ng/g | concentration at 1200 min ([3]; 7 µg/mouse, Blood): 4 ± 1 ng/g | concentration at 0 min ([3]; 7 µg/mouse, Liver): 3 ± 1 ng/g | concentration at 30 min ([3]; 7 µg/mouse, Liver): 87 ± 74 ng/g | concentration at 60 min ([3]; 7 µg/mouse, Liver): 136 ± 107 ng/g | concentration at 1200 min ([3]; 7 µg/mouse, Liver): 126 ± 116 ng/g | concentration at 0 min ([3]; 7 µg/mouse, Lung): 2 ± 1 ng/g | concentration at 30 min ([3]; 7 µg/mouse, Lung): 4 ± 2 ng/g | concentration at 60 min ([3]; 7 µg/mouse, Lung): 3 ± 3 ng/g | concentration at 1200 min ([3]; 7 µg/mouse, Lung): 4 ± 3 ng/g | concentration at 0 min [3, 8]: 6920 ± 265 ng/g | concentration at 30 min [3, 8]: 4310 ± 1550 ng/g | concentration at 60 min [3, 8]: 4610 ± 1410 ng/g | concentration at 1200 min [3, 8]: 1540 ± 751 ng/g | concentration at 0 min [3, 9]: 2 ± 1 ng/g | concentration at 30 min [3, 9]: 12 ± 5 ng/g

From patent US7348025B2, “Small particle liposome aerosols for delivery of anticancer drugs” (priority 1999, dated 2008)
